Source: patent publication US7803930B2, “Antisense modulation of apolipoprotein B-expression” (Isis Pharmaceuticals, Inc., priority 2002, dated 2010)
In the oligonucleotide strings, read from the 5' end, every base follows the letter of its sugar. An asterisk marks phosphorothioate; unmarked linkages are phosphodiester. Other units and linkages are bracketed, terminal groups are in braces. A string of capitals states the bases alone. e = 2'-O-(2-methoxyethyl) (MOE); [5mC] = 5-methylcytosine; d = 2'-deoxy (DNA)

Tested on: rabbit apolipoprotein B mRNA
Assay: Inhibition of rabbit apolipoprotein B mRNA levels in primary rabbit hepatocytes, real-time PCR
Assay type: cell-based
Parameters: % INHIB of rabbit apolipoprotein B mRNA levels: concentration or dose not given beside the values
Settings: not given
Excerpt: Primary rabbit hepatocytes were purchased from Invitro Technologies (Gaithersburg, Md.) and maintained in Dulbecco's modified Eagle's medium (Gibco). When purchased, the cells had been seeded into 96-well plates for use in RT-PCR analysis and were confluent.
In accordance with the present invention, a series of oligonucleotides was designed to target different regions of rabbit apolipoprotein B, using published sequences (GenBank accession number X07480.1, incorporated herein as SEQ ID NO: 808, GenBank accession number M17780.1, incorporated herein as SEQ ID NO: 809, and a sequence was derived using previously described primers (Tanaka, Journ. Biol. Chem., 1993,268, 12713-12718) representing an mRNA of the rabbit apolipoprotein B, incorporated herein as SEQ ID NO: 810). “Target site” indicates the first (5′-most) nucleotide number on the particular target sequence to which the oligonucleotide binds. All compounds in Table 21 are chimeric oligonucleotides (“gapmers”) 20 nucleotides in length, composed of a central “gap” region consisting of ten 2′-deoxynucleotides, which is flanked on both sides (5′ and 3′ directions) by five-nucleotide “wings”. The wings are composed of 2′-methoxyethyl (2′-MOE)nucleotides. The internucleoside (backbone) linkages are phosphorothioate (P═S) throughout the oligonucleotide. All cytidine residues are 5-methylcytidines. The compounds were analyzed for their effect on rabbit apolipoprotein B mRNA levels in primary rabbit hepatocytes by quantitative real-time PCR as described in other examples herein. Primary rabbit hepatocytes were treated with 150 nM of the compounds in Table 21. For rabbit apolipoprotein B the PCR primers were: • forward primer: AAGCACCCCCAATGTCACC (SEQ ID NO: 811) • reverse primer: […] (SEQ ID NO: 812) and the PCR probe was: FAM-[…]-TAMRA (SEQ ID NO: 813) where FAM (PE-Applied Biosystems, Foster City, Calif.) is the fluorescent reporter dye) and TAMRA (PE-Applied Biosystems, Foster City, Calif.) is the quencher dye. Data are averages from two experiments. If present, “N.D.” indicates “no data”.
In accordance with the present invention, a subset of the antisense oligonuclotides in Example 42 was further investigated in dose-response studies. Treatment doses were 10, 50, 150 and 300 nM. ISIS 233160 (SEQ ID NO: 824), ISIS 233166 (SEQ ID NO: 830), ISIS 233172 (SEQ ID NO: 835), ISIS 233175 (SEQ ID NO: 838), and ISIS 233183 (SEQ ID NO: 846) were analyzed for their effect on rabbit apolipoprotein B mRNA levels in primary rabbit hepatocytes by quantitative real-time PCR as described in other examples herein.

Substance | % INHIB of rabbit apolipoprotein B mRNA levels [%]
233185 (antisense e[5mC]*eA*eA*e[5mC]*eA*dA*dT*dG*dT*d[5mC]*dT*dG*dA*dT*dT*eG*eG*eT*eT*eA) [compound 233185] | 73
233186 (antisense eG*eA*eA*eG*eA*dG*dG*dA*dA*dG*dA*dA*dA*dG*dG*eA*eT*eA*eT*eG) [compound 233186] | 60
233187 (antisense eT*eG*eA*e[5mC]*eA*dG*dA*dT*dG*dA*dA*dG*dA*dG*dG*eA*eA*eG*eA*eA) [compound 233187] | 66
233188 (antisense eT*eT*eG*eT*eA*d[5mC]*dT*dG*dT*dA*dG*dT*dG*d[5mC]*dA*eT*e[5mC]*eA*eA*eT) [compound 233188] | 74
233189 (antisense eG*e[5mC]*e[5mC]*eT*e[5mC]*dA*dA*dT*d[5mC]*dT*dG*dT*dT*dG*dT*eT*eT*e[5mC]*eA*eG) [compound 233189] | 46
233190 (antisense eA*e[5mC]*eT*eT*eG*dA*dG*d[5mC]*dG*dT*dG*d[5mC]*d[5mC]*d[5mC]*dT*e[5mC]*eT*eA*eA*eT) [compound 233190] | 69
233191 (antisense eG*eA*eA*eA*eT*dG*dG*dA*dA*dT*dT*dG*dT*dA*dG*eT*eT*e[5mC]*eT*e[5mC]) [compound 233191] | 31

Tested on: mouse apolipoprotein B mRNA
Assay: Inhibition of mouse apolipoprotein B mRNA levels in primary mouse hepatocytes, real-time PCR
Assay type: cell-based
Settings: Table 3, 150 nM, averages from two experiments
Protocol: Primary mouse hepatocytes were prepared from CD-1 mice purchased from Charles River Labs (Wilmington, Mass.) and were routinely cultured in Hepatoyte Attachment Media (Gibco) supplemented with 10% Fetal Bovine Serum (Gibco/Life Technologies, Gaithersburg, Md.), 250 nM dexamethasone (Sigma), and 10 nM bovine insulin (Sigma). Cells were seeded into 96-well plates (Falcon-Primaria #3872) at a density of 10000 cells/well for use in RT-PCR analysis.
When cells reached 80% confluency, they were treated with oligonucleotide. For cells grown in 96-well plates, wells were washed once with 200 μL OPTI-MEM™-1 reduced-serum medium (Gibco BRL) and then treated with 130 μL of OPTI-MEM™-1 containing 3.75 μg/mL LIPOFECTIN™ (Gibco BRL) and the desired concentration of oligonucleotide. After 4-7 hours of treatment, the medium was replaced with fresh medium. Cells were harvested 16-24 hours after oligonucleotide treatment.
Quantitation of apolipoprotein B mRNA levels was determined by real-time quantitative PCR using the ABI PRISM™ 7700 Sequence Detection System (PE-Applied Biosystems, Foster City, Calif.) according to manufacturer's instructions. This is a closed-tube, non-gel-based, fluorescence detection system which allows high-throughput quantitation of polymerase chain reaction (PCR) products in real-time. As opposed to standard PCR, in which amplification products are quantitated after the PCR is completed, products in real-time quantitative PCR are quantitated as they accumulate. This is accomplished by including in the PCR reaction an oligonucleotide probe that anneals specifically between the forward and reverse PCR primers, and contains two fluorescent dyes. A reporter dye (e.g., JOE, FAM, or VIC, obtained from either Operon Technologies Inc., Alameda, Calif. or PE-Applied Biosystems, Foster City, Calif.) is attached to the 5′ end of the probe and a quencher dye (e.g., TAMRA, obtained from either Operon Technologies Inc., Alameda, Calif. or PE-Applied Biosystems, Foster City, Calif.) is attached to the 3′ end of the probe. When the probe and dyes are intact, reporter dye emission is quenched by the proximity of the 3′ quencher dye. During amplification, annealing of the probe to the target sequence creates a substrate that can be cleaved by the 5′-exonuclease activity of Taq polymerase. […] With each cycle, additional reporter dye molecules are cleaved from their respective probes, and the fluorescence intensity is monitored at regular intervals by laser optics built into the ABI PRISM™ 7700 Sequence Detection System. In each assay, a series of parallel reactions containing serial dilutions of mRNA from untreated control samples generates a standard curve that is used to quantitate the percent inhibition after antisense oligonucleotide treatment of test samples.
Probes and primers to mouse apolipoprotein B were designed to hybridize to a mouse apolipoprotein B sequence, using published sequence information (GenBank accession number M35186, incorporated herein as SEQ ID NO: 10). For mouse apolipoprotein B the PCR primers were: forward primer: CGTGGGCTCCAGCATTCTA (SEQ ID NO: 11) reverse primer: […] (SEQ ID NO: 12) and the PCR probe was: FAM-[…]-TAMRA SEQ ID NO: 13) where FAM (PE-Applied Biosystems, Foster City, Calif.) is the fluorescent reporter dye) and TAMRA (PE-Applied Biosystems, Foster City, Calif.) is the quencher dye. For mouse GAPDH the PCR primers were: forward primer: […] (SEQ ID NO: 14) reverse primer: […] (SEQ ID NO:15) and the PCR probe was: 5′ JOE-[…]-TAMRA 3′ (SEQ ID NO: 16) where JOE (PE-Applied Biosystems, Foster City, Calif.) is the fluorescent reporter dye) and TAMRA (PE-Applied Biosystems, Foster City, Calif.) is the quencher dye.
In accordance with the present invention, a series of oligonucleotides was designed to target different regions of the mouse apolipoprotein B RNA, using published sequence (GenBank accession number M35186, incorporated herein as SEQ ID NO: 10). […]

Substance | % INHIB [%]
147475 (eA*eT*eT*eG*eT*dA*dT*dG*dT*dG*dA*dG*dA*dG*dG*eT*eG*eA*eG*eG; antisense) [compound 147475] | 79
147476 (eG*eA*eG*eG*eA*dG*dA*dT*dT*dG*dG*dA*dT*d[5mC]*dT*eT*eA*eA*eG*eG; antisense) [compound 147476] | 13
147478 (eT*e[5mC]*e[5mC]*eA*eG*dG*dA*dA*dT*dT*dG*dA*dG*d[5mC]*dT*eT*eG*eT*eG*e[5mC]; antisense) [compound 147478] | 78
147480 (eT*e[5mC]*eT*e[5mC]*eA*d[5mC]*d[5mC]*d[5mC]*dT*d[5mC]*dA*dT*dG*d[5mC]*dT*e[5mC]*e[5mC]*eA*eT*eT; antisense) [compound 147480] | 54
147481 (eT*eG*eA*e[5mC]*eT*dG*dT*d[5mC]*dA*dA*dG*dG*dG*dT*dG*eA*eG*e[5mC]*eT*eG; antisense) [compound 147481] | 24
147482 (eG*eT*e[5mC]*e[5mC]*eA*dG*d[5mC]*d[5mC]*dT*dA*dG*dG*dA*dA*d[5mC]*eA*e[5mC]*eT*e[5mC]*eA; antisense) [compound 147482] | 59
147484 (eT*eT*e[5mC]*eA*eT*d[5mC]*d[5mC]*dG*dA*dG*dA*dA*dG*dT*dT*eG*eG*eG*eA*e[5mC]; antisense) [compound 147484] | 49
147485 (eA*eT*eT*eT*eG*dG*dG*dA*d[5mC]*dG*dA*dA*dT*dG*dT*eA*eT*eG*e[5mC]*e[5mC]; antisense) [compound 147485] | 64
147487 (eT*eT*e[5mC]*e[5mC]*e[5mC]*dA*dG*dT*d[5mC]*dA*dG*d[5mC]*dT*dT*dT*eA*eG*eT*eG*eG; antisense) [compound 147487] | 73
147488 (eA*eG*e[5mC]*eT*eT*dG*d[5mC]*dT*dT*dG*dT*dT*dG*dG*dG*e[5mC]*eA*e[5mC]*eG*eG; antisense) [compound 147488] | 72
147489 (e[5mC]*e[5mC]*eT*eA*eT*dA*d[5mC]*dT*dG*dG*d[5mC]*dT*dT*d[5mC]*dT*eA*eT*eG*eT*eT; antisense) [compound 147489] | 5
147491 (eG*eA*eG*eA*eA*dA*dT*d[5mC]*d[5mC]*dT*dT*d[5mC]*dA*dG*dT*eA*eA*eG*eG*eG; antisense) [compound 147491] | 71
147492 (e[5mC]*eA*eA*eT*eG*dG*dA*dA*dT*dG*d[5mC]*dT*dT*dG*dT*e[5mC]*eA*e[5mC]*eT*eG; antisense) [compound 147492] | 68
147493 (eG*e[5mC]*eT*eT*e[5mC]*dA*dT*dT*dA*dT*dA*dG*dG*dA*dG*eG*eT*eG*eG*eT; antisense) [compound 147493] | 41
147494 (eA*e[5mC]*eA*eA*e[5mC]*dT*dG*dG*dG*dA*dT*dA*dG*dT*dG*eT*eA*eG*e[5mC]*e[5mC]; antisense) [compound 147494] | 84
147495 (eG*eT*eT*eA*eG*dG*dA*d[5mC]*d[5mC]*dA*dG*dG*dG*dA*dT*eT*eG*eT*eG*eA; antisense) [compound 147495] | 0
147496 (eA*e[5mC]*e[5mC]*eA*eT*dG*dG*dA*dA*dA*dA*d[5mC]*dT*dG*dG*e[5mC]*eA*eA*e[5mC]*eT; antisense) [compound 147496] | 19
147498 (eT*eG*eG*eG*e[5mC]*dA*dA*d[5mC]*dG*dA*dT*dA*dT*d[5mC]*dT*eG*eA*eT*eT*eG; antisense) [compound 147498] | 0
147499 (e[5mC]*eT*eG*e[5mC]*eA*dG*dG*dG*d[5mC]*dG*dT*d[5mC]*dA*dG*dT*eG*eA*e[5mC]*eA*eA; antisense) [compound 147499] | 29
147501 (e[5mC]*eT*eT*eG*eG*dT*dT*dA*dA*dA*d[5mC]*dT*dA*dA*dT*eG*eG*eT*eG*e[5mC]; antisense) [compound 147501] | 18
147502 (eA*eT*eG*eG*eG*dA*dG*d[5mC]*dA*dT*dG*dG*dA*dG*dG*eT*eT*eG*eG*e[5mC]; antisense) [compound 147502] | 16
